The results in this text go back to a melting point compilation (Tetko et al.; mined from patent text by program, amines drawn as free bases though some values may be those of a salt).

In turn, `CCOC(=O)C(OC(=O)c1ccc(O)cc1)C(F)(F)F` (stereo unspecified) displayed a melting point of 83.8 °C. In the case of `CSC(=C(C#N)C#N)N1CCc2ccccc2CC1`, the melting point was 129 to 132 °C. As for `CCCCNC(=O)CCCCCCCSc1nc(-c2ccccc2)c(-c2ccccc2)[nH]1`, the melting point lay in the range of 136 to 137 °C. The same measure for `COC(=O)c1nc(Br)cc(N)c1Cl`: 194 to 195 °C. For `C#CC(C)(C)CCOc1ccc(Cl)cc1` the value was 42 to 45 °C. `ON1C=CN(c2ccccc2)N1`: the melting point lay within 284 to 285 °C. For `CCOC(=O)c1cc2c3c(ccc2[nH]1)OC[C@H](CO)O3` the value was 152 to 153 °C. The same measure for `N#CC(C(=O)Nc1ccc(Cl)cc1)C(=O)c1ccc[nH]1` (stereo unspecified): 219 to 221 °C.

In turn, `NS(=O)(=O)c1ccc(-n2nc(CCCNC(=O)Nc3ccc(C(F)(F)F)cc3)cc2-c2ccccc2)cc1` yielded a melting point of 185 to 186 °C. The same measure for `CC(=O)NNc1nc(C(F)(F)F)nc(-c2ccc(S(C)(=O)=O)cc2)c1-c1ccccc1F`: 281 to 283 °C; for `CC(C)(C)OC(=O)n1cc(C(=O)C2CSC(c3cccnc3)N2)c2cccc(OCc3ccccc3)c21` (stereo unspecified): 91 to 96 °C. For `COc1cccc2c1C(=O)c1c(O)cc(CO)cc1C2=O` the value was 215 to 216 °C; for `CN(C)CCCOc1ccc(C(=O)NN)cn1`, 81 to 83 °C. For `CN(C)CC(Cc1ccccc1)NC(=O)c1ccccc1` (stereo unspecified) the value was 110 °C; for `CCc1cccc2c3c([nH]c12)C(CC)(CC(=O)OC)OCC3=O` (stereo unspecified), 187 to 189 °C; for `COc1ccc2oc(C(=O)OCC(C)(C)C(=O)C(C)(C)C)cc2c1`, 81.5 to 82.5 °C.

For the compound `OCC1(c2ccccc2)CCCC1`, the melting point lay in the range of 41 to 44 °C. The same measure for `CCCC(=O)N1CCc2cc(S(=O)(=O)N3CCN(c4cccc(Cl)c4)CC3)ccc21`: 267 to 268 °C; for `Cc1nc2ccc(Cl)cc2c(=O)n1CCCn1ccnc1`: 190 to 192 °C. For `CCOC(=O)C=C1CSC(NC(=O)c2ccccc2)=NN1C(=O)c1ccccc1` the value was 187 to 189 °C; for `Cc1cc(C)nc(SCc2nccc(SCCCSc3ccc4ncc([N+](=O)[O-])n4n3)c2C)n1`, 145 to 147 °C; for `CCCCCCSC(=O)CS(=O)(=O)Nc1c(C(C)C)cccc1C(C)C`, 81 to 83 °C. The same measure for `COCCCNc1nc(Cl)cc(Cl)n1`: 48 °C; for `Cc1cnc2c(c1)cc1c3c(cc([N+](=O)[O-])cc32)C(=O)OC1=O`: 261 to 262 °C; for `CC(=O)Nc1ccc2c(c1)C(CN1CC=C(c3cn(C)c4cc(Cl)ccc34)CC1)CC2` (stereo unspecified): 189 to 193 °C. The compound `O=C(Nc1ccc(F)c(NC(=S)Nc2cc(Cl)cc(Cl)c2)c1)c1ccc(F)c(F)c1` returned a melting point of 197 °C.

Compound `CC1(O)OC(=O)c2ccc(Oc3ccc(C(F)(F)F)cc3Cl)cc21` (stereo unspecified) yielded a melting point of 100 to 103 °C. Compound `CC(=O)c1cnc2c(n1)C(C)(C)CCC2(C)C` yielded a melting point of 68 to 69 °C. For `O=C(Nc1ccc(OC(F)(F)F)cc1)NC1CCN(C(=O)CN2CCNCC2)CC1` the value was 111 to 122 °C. For `Cn1c(=O)oc2cc3c(cc21)C1(CO3)C(=O)N(CC2CCCO2)c2ccccc21` (stereo unspecified) the value was more than 250 °C; for `CC(C)(C)OC(=O)c1ncn2c1C1CCCN1C(=O)c1ncccc1-2` (stereo unspecified), 230 to 231 °C.

In turn, `COC(=O)c1ccc(S(C)(=O)=O)c(CC#N)c1Cl` displayed a melting point of 151 to 155 °C. For `COc1ccc2c(c1)N(c1ccc(F)cc1)C(=O)C2(C)NC(=O)OCc1ccccc1` (stereo unspecified) the value was 167 to 169 °C; for `CN(C(=O)c1ccccc1)C(=O)c1nc(Cl)c(Cl)[nH]1`, 168 °C; for `CC(C)Nc1cccnc1N1CCN(C(=O)c2ccc(C(=O)NCCOCCO)cn2)CC1`, 93 to 95 °C. For `CNc1ccc(C(=O)N(CCN2CCC(C(=O)c3ccc(F)cc3)CC2)c2cccnc2)cc1` the value was 90 to 96 °C.

As a reminder, the melting point is the temperature of the solid-liquid transition.
